Source: the NIST ThermoML archive (doi:10.1016/j.jct.2006.10.011)
Several values for one entry are separate records, joined by “and”; a condition that tells them apart may be missing. Equal entries are not always repeated.

Assay: molar heat capacity at constant pressure
Conditions: 101.33 kPa, Crystal

O [water]
Conditions	molar heat capacity at constant pressure
0.4719 K, Low-temperature adiabatic	4.834e-06 J/K/mol
0.4841 K, Low-temperature adiabatic	2.38e-05 J/K/mol
0.5 K, adiabatic	2.28e-05 J/K/mol
0.5191 K, Low-temperature adiabatic	3.571e-05 J/K/mol
0.5328 K, Low-temperature adiabatic	2.99e-05 J/K/mol
0.5456 K, Low-temperature adiabatic	3.104e-05 J/K/mol
0.5713 K, Low-temperature adiabatic	3.382e-05 J/K/mol
0.5859 K, Low-temperature adiabatic	3.177e-05 J/K/mol
0.5999 K, Low-temperature adiabatic	3.883e-05 J/K/mol
0.6287 K, Low-temperature adiabatic	4.342e-05 J/K/mol
0.6451 K, Low-temperature adiabatic	3.414e-05 J/K/mol
0.6608 K, Low-temperature adiabatic	4.582e-05 J/K/mol
0.6935 K, Low-temperature adiabatic	5.952e-05 J/K/mol
0.7107 K, Low-temperature adiabatic	6.565e-05 J/K/mol
0.7283 K, Low-temperature adiabatic	7.207e-05 J/K/mol
0.764 K, Low-temperature adiabatic	7.817e-05 J/K/mol
0.783 K, Low-temperature adiabatic	8.554e-05 J/K/mol
0.8021 K, Low-temperature adiabatic	9.413e-05 J/K/mol
0.8407 K, Low-temperature adiabatic	0.0001158 J/K/mol
0.8618 K, Low-temperature adiabatic	0.0001219 J/K/mol
0.8828 K, Low-temperature adiabatic	0.0001311 J/K/mol
0.9245 K, Low-temperature adiabatic	0.0001506 J/K/mol
0.9708 K, Low-temperature adiabatic	0.000169 J/K/mol
1 K, adiabatic	0.0001825 J/K/mol
1.015 K, Low-temperature adiabatic	0.0001986 J/K/mol
1.04 K, Low-temperature adiabatic	0.0002059 J/K/mol
1.066 K, Low-temperature adiabatic	0.0002218 J/K/mol
1.116 K, Low-temperature adiabatic	0.0002582 J/K/mol
1.146 K, Low-temperature adiabatic	0.0002671 J/K/mol
1.173 K, Low-temperature adiabatic	0.0002946 J/K/mol
1.228 K, Low-temperature adiabatic	0.0003386 J/K/mol
1.261 K, Low-temperature adiabatic	0.0003738 J/K/mol
1.292 K, Low-temperature adiabatic	0.0004076 J/K/mol
1.352 K, Low-temperature adiabatic	0.0004587 J/K/mol
1.388 K, Low-temperature adiabatic	0.0004915 J/K/mol
1.485 K, Low-temperature adiabatic	0.0006013 J/K/mol
1.5 K, adiabatic	0.0006167 J/K/mol
1.522 K, Low-temperature adiabatic	0.0006394 J/K/mol
1.561 K, Low-temperature adiabatic	0.0006901 J/K/mol
1.634 K, Low-temperature adiabatic	0.0007957 J/K/mol
1.675 K, Low-temperature adiabatic	0.0008489 J/K/mol
1.716 K, Low-temperature adiabatic	0.0009132 J/K/mol
1.731 K, Low-temperature adiabatic	0.0009652 J/K/mol
1.798 K, Low-temperature adiabatic	0.001053 J/K/mol
1.816 K, Low-temperature adiabatic	0.001109 J/K/mol
1.843 K, Low-temperature adiabatic	0.001123 J/K/mol
1.887 K, Low-temperature adiabatic	0.001207 J/K/mol
1.904 K, Low-temperature adiabatic	0.00125 J/K/mol
1.977 K, Low-temperature adiabatic	0.00139 J/K/mol
1.998 K, Low-temperature adiabatic	0.001434 J/K/mol
2 K, adiabatic	0.001465 J/K/mol
2.027 K, Low-temperature adiabatic	0.001484 J/K/mol
2.076 K, Low-temperature adiabatic	0.001598 J/K/mol
2.095 K, Low-temperature adiabatic	0.001659 J/K/mol
2.175 K, Low-temperature adiabatic	0.00184 J/K/mol
2.2 K, Low-temperature adiabatic	0.001902 J/K/mol
2.304 K, Low-temperature adiabatic	0.002208 J/K/mol
2.421 K, Low-temperature adiabatic	0.002544 J/K/mol
2.5 K, adiabatic	0.002874 J/K/mol
2.536 K, Low-temperature adiabatic	0.002963 J/K/mol
2.664 K, Low-temperature adiabatic	0.003432 J/K/mol
2.791 K, Low-temperature adiabatic	0.003994 J/K/mol
2.932 K, Low-temperature adiabatic	0.004612 J/K/mol
3 K, adiabatic	0.004998 J/K/mol
3.073 K, Low-temperature adiabatic	0.005384 J/K/mol
3.228 K, Low-temperature adiabatic	0.006206 J/K/mol
3.381 K, Low-temperature adiabatic	0.007213 J/K/mol
3.5 K, adiabatic	0.008013 J/K/mol
3.552 K, Low-temperature adiabatic	0.008311 J/K/mol
3.719 K, Low-temperature adiabatic	0.00968 J/K/mol
3.906 K, Low-temperature adiabatic	0.01117 J/K/mol
4 K, adiabatic	0.01212 J/K/mol
4.089 K, Low-temperature adiabatic	0.01302 J/K/mol
4.294 K, Low-temperature adiabatic	0.01503 J/K/mol
4.498 K, Low-temperature adiabatic	0.01756 J/K/mol
4.5 K, adiabatic	0.01755 J/K/mol
4.723 K, Low-temperature adiabatic	0.02031 J/K/mol
4.947 K, Low-temperature adiabatic	0.02384 J/K/mol
5 K, adiabatic	0.02458 J/K/mol
5.194 K, Low-temperature adiabatic	0.02762 J/K/mol
5.44 K, Low-temperature adiabatic	0.03248 J/K/mol
5.5 K, adiabatic	0.03354 J/K/mol
5.713 K, Low-temperature adiabatic	0.03773 J/K/mol
5.985 K, Low-temperature adiabatic	0.04456 J/K/mol
6 K, adiabatic	0.04478 J/K/mol
6.284 K, Low-temperature adiabatic	0.05186 J/K/mol
6.5 K, adiabatic	0.05874 J/K/mol
6.583 K, Low-temperature adiabatic	0.06156 J/K/mol
6.912 K, Low-temperature adiabatic	0.07207 J/K/mol
7 K, adiabatic	0.07583 J/K/mol
7.239 K, Low-temperature adiabatic	0.08574 J/K/mol
7.5 K, adiabatic	0.09651 J/K/mol
7.6 K, Low-temperature adiabatic	0.1009 J/K/mol
7.96 K, Low-temperature adiabatic	0.1206 J/K/mol
8 K, adiabatic	0.1212 J/K/mol
8.354 K, Low-temperature adiabatic	0.1416 J/K/mol
8.5 K, adiabatic	0.1503 J/K/mol
8.75 K, Low-temperature adiabatic	0.1684 J/K/mol
9 K, adiabatic	0.1842 J/K/mol
9.185 K, Low-temperature adiabatic	0.1972 J/K/mol
9.187 K, Low-temperature adiabatic	0.1979 J/K/mol
9.5 K, adiabatic	0.2231 J/K/mol
9.619 K, Low-temperature adiabatic	0.2343 J/K/mol
9.645 K, Low-temperature adiabatic	0.2352 J/K/mol
10 K, adiabatic	0.2672 J/K/mol
10.11 K, Low-temperature adiabatic	0.2752 J/K/mol and 0.2768 J/K/mol
10.59 K, Low-temperature adiabatic	0.3268 J/K/mol
10.6 K, Low-temperature adiabatic	0.3266 J/K/mol
11 K, adiabatic	0.3709 J/K/mol
11.12 K, Low-temperature adiabatic	0.3841 J/K/mol
11.66 K, Low-temperature adiabatic	0.4516 J/K/mol
12 K, adiabatic	0.4948 J/K/mol
12.23 K, Low-temperature adiabatic	0.5267 J/K/mol
12.82 K, Low-temperature adiabatic	0.6103 J/K/mol
13 K, adiabatic	0.6372 J/K/mol
13.43 K, Low-temperature adiabatic	0.7044 J/K/mol
14 K, adiabatic	0.7967 J/K/mol
14.08 K, Low-temperature adiabatic	0.8099 J/K/mol
14.75 K, Low-temperature adiabatic	0.9261 J/K/mol
15 K, adiabatic	0.9716 J/K/mol
15.46 K, Low-temperature adiabatic	1.058 J/K/mol
16 K, adiabatic	1.16 J/K/mol
16.19 K, Low-temperature adiabatic	1.197 J/K/mol
16.99 K, Low-temperature adiabatic	1.356 J/K/mol
17 K, adiabatic	1.358 J/K/mol
17.79 K, Low-temperature adiabatic	1.518 J/K/mol
18 K, adiabatic	1.564 J/K/mol
18.66 K, Low-temperature adiabatic	1.704 J/K/mol
19 K, adiabatic	1.777 J/K/mol
19.55 K, Low-temperature adiabatic	1.895 J/K/mol
19.6 K, Low-temperature adiabatic	1.908 J/K/mol
20 K, adiabatic	1.993 J/K/mol
20.58 K, Low-temperature adiabatic	2.12 J/K/mol
21.46 K, Low-temperature adiabatic	2.315 J/K/mol
22 K, adiabatic	2.433 J/K/mol
22.52 K, Low-temperature adiabatic	2.55 J/K/mol
23.59 K, Low-temperature adiabatic	2.78 J/K/mol
24 K, adiabatic	2.873 J/K/mol
24.75 K, Low-temperature adiabatic	3.037 J/K/mol
25.92 K, Low-temperature adiabatic	3.292 J/K/mol
26 K, adiabatic	3.306 J/K/mol
27.21 K, Low-temperature adiabatic	3.562 J/K/mol
28 K, adiabatic	3.728 J/K/mol
28.49 K, Low-temperature adiabatic	3.828 J/K/mol
29.94 K, Low-temperature adiabatic	4.128 J/K/mol
30 K, adiabatic	4.139 J/K/mol
31.38 K, Low-temperature adiabatic	4.423 J/K/mol
32 K, adiabatic	4.543 J/K/mol
32.99 K, Low-temperature adiabatic	4.735 J/K/mol
34 K, adiabatic	4.947 J/K/mol
34.59 K, Low-temperature adiabatic	5.067 J/K/mol
36 K, adiabatic	5.363 J/K/mol
36.02 K, Low-temperature adiabatic	5.371 J/K/mol
37.45 K, Low-temperature adiabatic	5.677 J/K/mol
38 K, adiabatic	5.804 J/K/mol
